Results taken from patent US20230310445A1, “LOX ENZYME INHIBITING METHODS AND COMPOSITIONS” (ANOVIA BIOSCIENCES, INC., priority 2020, published 2023).

Assays:
[1] = target: T1, Bovine lysyl oxidase (LOX) (Bos taurus, UniProt P33072); assay: LOX inhibition assay (fluorometric, cadaverine/Amplex Red/HRP); assay type: biochemical; conditions: IC50 class; bovine tendon LOX, cadaverine substrate; read-out: Activity Range LOX
T1 construct: from tissue; host or cells: adult bovine tendon
T1 sequence (P33072 170-418): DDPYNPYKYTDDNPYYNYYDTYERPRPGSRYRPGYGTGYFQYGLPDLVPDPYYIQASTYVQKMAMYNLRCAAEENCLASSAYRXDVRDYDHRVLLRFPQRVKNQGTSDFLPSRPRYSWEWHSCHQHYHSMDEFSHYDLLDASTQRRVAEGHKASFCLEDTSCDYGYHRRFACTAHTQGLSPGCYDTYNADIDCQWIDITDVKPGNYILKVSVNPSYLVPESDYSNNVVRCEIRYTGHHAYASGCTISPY
Procedure: (§1) The ability of compounds to inhibit prototypic LOX was determined using a fluorometric assay. This assay measures the activity of lysyl oxidases by coupling the reaction with horseradish peroxidase-catalyzed […]. The activity assay protocol uses cadaverine as substrate that releases hydrogen peroxide upon transformation by prototypic LOX enzyme present in the sample. Hydrogen peroxide is in turn detected using a red fluorescence substrate for HRP-coupled reactions (Amplex Red Enzyme Assays, Thermo Scientific Fisher). This leads to increase in fluorescence that can be easily detected at Ex/Em=540/590 nm in a fluorescence microplate reader.
Enzyme: Bovine lysyl oxidase (LOX) was extracted by adapting the methodology from [Kagan et al. 1979 and Borel et al. 2001.] from bovine tendon: Frozen adult bovine tendon was placed in room temperature water to defrost, and then membranes were removed and the remaining tissue cut into 1 cm pieces. The material was first passed through a course mesh meat grinder, and this mince was passed through a fine mesh grinder. The mince was homogenized in 10 v/w of buffer (16 mM sodium phosphate buffer pH 7.8, 400 mM NaCl) using a Waring blender. The homogenate was centrifuged at 15,000×g for 15 min at 4° C. After centrifugation, the supernatant was discarded and the pellets resuspended in 10 volumes of the same buffer. The mixture was blended again and centrifuged with the same settings. This time the pellets were blended in 3 volumes of extraction buffer (16 mM sodium phosphate buffer pH 7.8) and left to incubate at 4° C. for 2 h. After this time, the slurry was centrifuged with the same settings as described above. The supernatant was used in an ultrafiltration step to remove large proteins by size exclusion through a 30 kDalton filter (EMD Millipore). The filtrate was mixed with DEAE Sephadex (GE Healthcare), or passed over a MonoQ FPLC column. After two washes, one in 16 mM sodium phosphate buffer pH 7.8, 380 mM NaCl, and another in 16 mM sodium phosphate buffer pH 7.8, the proteins were eluted with 16 mM sodium phosphate pH 7.8, 10 μM CuSO4, and 4 M urea. Fractions containing Lox activity were collected and stored frozen at −70° C.
Reaction: Final concentration in the LOX assay was as following and performed in a total volume of […]:
Experimental procedure: 7 μl of freshly prepared reaction buffer were delivered to reaction wells. Compounds were resuspended in 100% DMSO at 10 mM and delivered into buffer using acoustic technology (Echo550; nanoliter range). A 2.85× solution of LOX protein in reaction buffer was prepared (“LOX solution”) and 7 μl of LOX solution was added into the reaction wells. Buffer only was added to column 1 for no protein control. Reactions were incubated for 30 minutes at 37° C. A 3.33× mixture of cadaverine, Amplex Red, and HRP (“Substrate/Detection Mix) was prepared and subsequently 6 μL of the mixture was added to each reaction well. Progress of reactions was monitored for 120 minutes at 37° C. using Clariostar plate reader (ex530-12, ems 600-40). For all activity assays, pan-LOX inhibitor CCT365623 (Tang et al, 2017) and LOXL2/LOXL3 inhibitor PAT-1251 (PharmaKea) were included as standards.
Data analysis: Slope of the linear portion of the progress curve was calculated using Clariostar software. Typical analysis interval was between 20-50 min, but varied between experiments. The background subtracted signals (No protein wells were considered as background) were converted to % activity relative to DMSO controls. Data was analyzed using GraphPad Prism 4 with “sigmoidal dose-response (variable slope)”; 4 parameters with Hill Slope. Constraints: Bottom=Constant equal to 0. Top=Must be less than 120.

[2] = target: T2, Recombinant human LOXL2 (lysyl oxidase like 2) (Homo sapiens, UniProt Q9Y4K0); assay: LOXL2 inhibition assay (fluorometric, cadaverine/Amplex Red/HRP); assay type: biochemical; conditions: IC50 class; recombinant human LOXL2, cadaverine substrate; read-out: Activity Range LOXL2
T2 construct: purchased R&D systems
T2 sequence (Q9Y4K0 26-774): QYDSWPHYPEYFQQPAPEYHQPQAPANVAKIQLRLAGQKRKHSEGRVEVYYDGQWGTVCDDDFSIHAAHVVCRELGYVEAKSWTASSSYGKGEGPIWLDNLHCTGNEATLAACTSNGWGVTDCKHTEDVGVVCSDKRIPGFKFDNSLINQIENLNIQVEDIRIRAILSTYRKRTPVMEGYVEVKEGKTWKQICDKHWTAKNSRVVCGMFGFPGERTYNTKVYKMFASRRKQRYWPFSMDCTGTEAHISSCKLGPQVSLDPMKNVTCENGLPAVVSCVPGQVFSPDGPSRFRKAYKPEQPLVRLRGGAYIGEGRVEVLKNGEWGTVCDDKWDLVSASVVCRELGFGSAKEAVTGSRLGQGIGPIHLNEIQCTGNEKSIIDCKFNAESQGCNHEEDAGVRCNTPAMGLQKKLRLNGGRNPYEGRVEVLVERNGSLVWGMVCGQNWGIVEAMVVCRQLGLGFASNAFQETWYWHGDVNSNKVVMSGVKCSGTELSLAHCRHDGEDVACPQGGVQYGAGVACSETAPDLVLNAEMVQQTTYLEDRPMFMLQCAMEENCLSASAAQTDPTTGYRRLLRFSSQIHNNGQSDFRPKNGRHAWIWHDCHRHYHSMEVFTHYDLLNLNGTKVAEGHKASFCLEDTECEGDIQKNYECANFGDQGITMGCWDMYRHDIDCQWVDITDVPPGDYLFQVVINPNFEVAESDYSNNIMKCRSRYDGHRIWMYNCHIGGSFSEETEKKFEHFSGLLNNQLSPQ
Procedure: as §1, with “inhibit one or more of the lysyl oxidases LOXL2 and/or LOXL3” for “inhibit prototypic LOX”, “by the specific” for “by prototypic”, “LOX family” for “LOX”
Enzymes: Recombinant human LOXL2 (lysyl oxidase like 2) and recombinant human LOXL3 (lysyl oxidase like 3) were purchased from R&D systems and assays were performed in 1.2 M urea, 50 mM sodium borate buffer pH 8.0, and 10 mM CaCl.
Reaction: Final concentration in the LOXL2 and LOXL3 assays were as following and performed in a total volume of […]:
Experimental procedure: 5 μl of freshly prepared reaction buffer were delivered to reaction wells. Compounds were resuspended in 100% DMSO at 10 mM and delivered into buffer using acoustic technology (Echo550; nanoliter range). A 3× solution of LOXL2 or LOXL3 in reaction buffer was prepared (“enzyme solution”) and 5 μL of enzyme solution was added into the reaction wells. Buffer only was added to column 1 for no protein control. Reactions were incubated for 30 minutes at 37° C. A 3×mixture of cadaverine, Amplex Red, and HRP (“Substrate/Detection Mix) was prepared and subsequently 5 μL of the mixture added to each reaction well. Progress of reactions was monitored for 60 minutes at 37° C. using Clariostar plate reader (ex 530-12, ems 600-40). For all activity assays, pan-LOX inhibitor CCT365623 (Tang et al, 2017) and LOXL2/LOXL3 inhibitor PAT-1251 (PharmaKea) were included as standards.
Data analysis: Slope of the linear portion of the progress curve was calculated using Clariostar software. Typical analysis interval was between 8-30 min, but varied between experiments. The background subtracted signals (No protein wells are considered as background) were converted to % activity relative to DMSO controls. Data was analyzed using GraphPad Prism 4 with “sigmoidal dose-response (variable slope)”; 4 parameters with Hill Slope. Constraints: Bottom=Constant equal to 0. Top=Must be less than 120.

IC50 [1] [nM]	IC50 [2] [nM]	Compound
1000 to 30000	500 to 1000	CS(=O)(=O)N1C[C@H](Oc2cccc(CN)c2)C[C@H](c2ccccc2)C1 (racemic) [Example 25, cis-(3-((-1-(Methylsulfonyl)-5-phenylpiperidin-3-yl)oxy)phenyl)methanamine 2,2,2-trifluoroacetate]
1000 to 30000	≤ 500	CS(=O)(=O)N1C[C@@H](c2ccccc2)C[C@@H](S(=O)(=O)c2ccc(CN)cc2)C1 (racemic) [Example 26, cis-(4-((1-(Methylsulfonyl)-5-phenylpiperidin-3-yl)sulfonyl)phenyl)methanamine 2,2,2-trifluoroacetate]
1000 to 30000	≤ 500	CS(=O)(=O)N1C[C@@H](c2ccccc2)C[C@@H](S(=O)(=O)c2cccc(CN)c2)C1 (racemic) [Example 27, cis-(3-((1-(Methylsulfonyl)-5-phenylpiperidin-3-yl)sulfonyl)phenyl)methanamine 2,2,2-trifluoroacetate]
> 30000	≤ 500	CS(=O)(=O)N1C[C@H](Oc2cc(CN)ccc2F)C[C@H](c2ccccc2)C1 (racemic) [Example 69, cis-(4-Fluoro-3-((-1-(methylsulfonyl)-5-phenylpiperidin-3-yl)oxy)phenyl)methanamine 2,2,2-trifluoroacetate]
–	> 30000	NCc1cccc(S(=O)(=O)N2C[C@@H](C(=O)N3CCOCC3)C[C@@H](c3ccccc3)C2)n1 (racemic) [Example 114, cis-(1-((6-(Aminomethyl)pyrid-2-yl)sulfonyl)-5-phenylpiperidin-3-yl)(morpholino)methanone]

The remaining lines, values behind:

Compound	IC50 [1] [nM]	IC50 [2] [nM]
CN(C)C(=O)[C@H]1C[C@@H](c2ccccc2)CN(S(=O)(=O)c2ccc(CN)s2)C1 (racemic) [Example 9, cis-1-((5-(Aminomethyl)thiophen-2-yl)sulfonyl)-N,N-dimethyl-5-phenylpiperidine-3-carboxamide 2,2,2-trifluoroacetate]	500 to 1000	≤ 500
NCc1ccc(S(=O)(=O)N2C[C@@H](C(=O)N3CCCCC3)C[C@@H](c3ccccc3)C2)s1 (racemic) [Example 11, cis-(1-((5-(Aminomethyl)thiophen-2-yl)sulfonyl)-5-phenylpiperidin-3-yl)(piperidin-1-yl)methanone 2,2,2-trifluoroacetate]	≤ 500	≤ 500
NCc1ccc(S(=O)(=O)N2C[C@@H](C(=O)N3CCNCC3)C[C@@H](c3ccccc3)C2)s1 (racemic) [Example 15, cis-(1-((5-(Aminomethyl)thiophen-2-yl)sulfonyl)-5-phenylpiperidin-3-yl)(piperazin-1-yl)methanone 2,2,2-trifluoroacetate]	500 to 1000	≤ 500
CN1CCN(C(=O)[C@H]2C[C@@H](c3ccccc3)CN(S(=O)(=O)c3ccc(CN)s3)C2)CC1 (racemic) [Example 17, cis-(1-((5-(Aminomethyl)thiophen-2-yl)sulfonyl)-5-phenylpiperidin-3-yl)(4-methylpiperazin-1-yl)methanone 2,2,2-trifluoroacetate]	500 to 1000	≤ 500
CS(=O)(=O)[C@@H]1C[C@H](Oc2ccc(CN)cc2)CN(c2ccccc2)C1 (racemic) [Example 20, cis-(4-((-5-(Methylsulfonyl)-1-phenylpiperidin-3-yl)oxy)phenyl)methanamine2,2,2-trifluoroacetate]	1000 to 30000	1000 to 30000
CS(=O)(=O)[C@@H]1C[C@H](Oc2cccc(CN)c2)CN(c2ccccc2)C1 (racemic) [Example 21, cis-(3-((-5-(Methylsulfonyl)-1-phenylpiperidin-3-yl)oxy)phenyl)methanamine 2,2,2-trifluoroacetate]	> 30000	500 to 1000
CS(=O)(=O)[C@H]1C[C@@H](S(=O)(=O)c2ccc(CN)cc2)CN(c2ccccc2)C1 (racemic) [Example 22, cis-(4-((5-(Methylsulfonyl)-1-phenylpiperidin-3-yl)sulfonyl)phenyl)methanamine 2,2,2-trifluoroacetate]	1000 to 30000	≤ 500
CS(=O)(=O)N1C[C@H](Oc2ccc(CN)cc2)C[C@H](c2ccccc2)C1 (racemic) [Example 24, cis-(4-((1-(Methylsulfonyl)-5-phenylpiperidin-3-yl)oxy)phenyl)methanamine 2,2,2-trifluoroacetate]	> 30000	1000 to 30000
